The values that follow come from US7499847B2, “Crystalline VAP-1 and uses thereof” (Biotie Therapies Corporation, priority 2003, dated 2009).

For assay [1], the target named is T1, Recombinant human VAP-1 SSAO (Homo sapiens, UniProt Q16853).
T1 construct: expressed in transfected cells; host or cells: CHO cells (clarified NP40 lysate used directly)
T1 sequence (Q16853 1-763): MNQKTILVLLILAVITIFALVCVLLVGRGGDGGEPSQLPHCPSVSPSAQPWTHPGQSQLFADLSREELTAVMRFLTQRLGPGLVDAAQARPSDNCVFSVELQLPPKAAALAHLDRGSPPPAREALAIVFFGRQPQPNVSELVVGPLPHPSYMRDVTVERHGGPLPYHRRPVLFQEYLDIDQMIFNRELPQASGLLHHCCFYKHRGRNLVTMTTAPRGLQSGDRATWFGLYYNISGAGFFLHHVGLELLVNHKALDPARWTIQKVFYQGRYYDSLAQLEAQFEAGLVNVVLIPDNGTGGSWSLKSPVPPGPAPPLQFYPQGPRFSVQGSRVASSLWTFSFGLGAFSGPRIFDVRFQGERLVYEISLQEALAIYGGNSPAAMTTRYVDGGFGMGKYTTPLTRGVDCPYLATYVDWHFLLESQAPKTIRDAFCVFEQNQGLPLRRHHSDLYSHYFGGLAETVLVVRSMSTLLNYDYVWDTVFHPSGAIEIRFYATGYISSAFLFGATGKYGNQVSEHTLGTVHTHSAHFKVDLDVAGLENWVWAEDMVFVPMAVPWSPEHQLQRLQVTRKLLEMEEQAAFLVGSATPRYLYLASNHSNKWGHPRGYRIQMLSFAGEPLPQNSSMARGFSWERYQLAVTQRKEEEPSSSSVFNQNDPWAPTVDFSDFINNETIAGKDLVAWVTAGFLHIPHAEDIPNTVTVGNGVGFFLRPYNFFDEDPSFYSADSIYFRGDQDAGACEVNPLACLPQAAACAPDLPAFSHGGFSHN
Description: VAP-1 SSAO activity, coupled colourimetric assay (benzylamine substrate). The format is biochemical. The conditions noted are these: for IC50: CHO cell lysate with recombinant human VAP-1 SSAO, 1 mM benzylamine, 1 h at 37° C., read-out: VAP-1 SSAO inhibitory activity IC50; for Selectivity for VAP-1 SSAO over MAO: ratio of total rat MAO IC50 to human VAP-1 SSAO IC50. Here is the method: VAP-1 SSAO activity was measured using the coupled colourimetric method essentially as described for monoamine oxidase and related enzymes. Recombinant human VAP-1 SSAO expressed in Chinese Hamster Ovary (CHO) cells was used as a source of VAP-1 SSAO for activity measurements. Native CHO cells have negligible SSAO activity. These cells and their culture have previously been described (Smith D J et al., 1998).
A cell lysate was prepared by suspending approximately 3.6×10^8 cells in 25 ml lysis buffer (150 mM NaCl, 10 mM Tris-Base pH 7.2, 1.5 mM MgCl2, 1% NP40) and incubating at 4° C. overnight on a rotating table. The lysate was clarified by centrifugation at 18000 g for 5 min at room temperature and the supematant used directly in the assay.
The VAP-1 SSAO assay was performed in 96 well microtitre plates as follows. To each well was added a predetermined amount of inhibitor if required. The amount of inhibitor varied in each assay but was generally at a final concentration of between 1 nM and 50 μM. Controls lacked inhibitor. The inhibitor was in a total volume of […] in water. The following reagents were then added. 0.2M potassium phosphate buffer pH 7.6 to a total reaction volume of 200 μl, 45 μl of freshly made chromogenic solution containing 1 mM 2,4-dichlorophenol, 500 μM 4-aminoantipyrine and 4 U/ml horseradish peroxidase and an amount of CHO cell lysate containing VAP-1 SSAO that caused a change of 0.6 A490 per h. This was within the linear response range of the assay.
The plates were incubated for 30 min at 37° C. and the background absorbance measured at 490 nm using a Wallac Victor II multilabel counter. To initiate the enzyme reaction 20 μl 10 mM benzylamine (final concentration=1 mM) was added and the plate incubated for 1 h at 37° C.
The increase in absorbance, reflecting VAP-1 SSAO activity, was measured at 490 nm. Inhibition was presented as percent inhibition compared to control after correcting for background absorbance and IC50. values calculated using GraphPad Prism.

Assay [2] relates to T2, Total rat MAO (rat liver mitochondrial preparate).
T2 construct: Rat MAO was prepared from rat liver; Mitochondrial preparate was aliquoted and stored at −70° C
Description: Total rat MAO activity, colourimetric assay (tyramine substrate). The format is biochemical. The conditions noted are these: rat liver MAO preparation, 0.5 mM tyramine, 1 h at 37° C.; read-out: Total MAO inhibitory activity IC50. Here is the method:
Rat MAO was prepared from rat liver by rinsing a 1 g liver sample several times in 14 ml KCl-EDTA-solution to remove all blood. Then 1 g liver sample was homogenised in 4 ml ice-cold potassium phosphate buffer (0.1 M, pH 7.4) with an Ultra-Turrax homogeniser (setting 11 000 rpm, 4×10 s). After centrifugation at 500 g for 10 min at 4° C. the supematant was carefully withdrawn and was centrifuged at 12 300 g for 15 min at 4° C. The supernatant was discharged and sedimented mitochondria were resuspended in 4 ml fresh phosphate buffer and centrifuged as previously. The mitochondria were suspended in 4 ml phosphate buffer and homogenized with an Ultra-Turrax homogeniser (setting 11 000 rpm, 2×10 s). Mitochondrial preparate was aliquoted and stored at −70° C. […] To each well was added a predetermined amount of inhibitor if required. The amount of inhibitor varied in each assay but was generally at a final concentration of between 10 nM and […]. Controls lacked inhibitor. […] The plates were incubated for 30 min at 37° C. and the background absorbance measured at 490 nm using a Wallac Victor II multilabel counter. To initiate the enzyme reaction 20 μl of 5 mM tyramine (final concentration 0.5 mM) was added and the plate incubated for 1 h at 37° C. The increase in absorbance, reflecting MAO activity, was measured at 490nm. Inhibition was presented as percent inhibition compared to control after correcting for background absorbance and IC50 values calculated using GraphPad Prism. Clorgyline and pargyline (inhibitors of MAO-A and -B respectively) at 0.5 μM were added to some wells as positive controls for MAO inhibition.

For orientation: IC50 means the point on the concentration scale where inhibition reaches its midpoint. As for `CN(N)CC(O)COc1ccccc1.O=C(O)/C=C\C(=O)O` (stereo not drawn) [Compound 1], the figures for the IC50 in assay [1] and in assay [2] were 0.37 µM and 13 µM, respectively. Also, the “Selectivity for VAP-1 SSAO over MAO” value in assay [1] is on record as 35.
For the compound `Cc1ccccc1OCC(O)CN(C)N.O=C(O)/C=C/C(=O)O` (stereo not drawn) [Compound 2], the IC50 in assay [1] came to 0.52 µM; in assay [2] it was 8.7 µM. Besides, in assay [1], the “Selectivity for VAP-1 SSAO over MAO” value is recorded as 17.
The like results for `COC(COc1ccc(Cl)cc1)CN(C)N.O=C(O)/C=C/C(=O)O` (stereo not drawn) [Compound 3] were, in that order, 0.26 µM, 3.3 µM and 13.
As for `Cc1ccc(OCC(O)CN(C)N)cc1.O=C(O)/C=C/C(=O)O` (stereo not drawn) [Compound 4], in assay [1], the IC50 is 0.43 µM and the “Selectivity for VAP-1 SSAO over MAO” value came to 23. Further, the IC50 in assay [2] worked out at 10 µM.
The like results for `COC(COc1cccc2ccccc12)CN(C)N.O=C(O)/C=C\C(=O)O` (stereo not drawn) [Compound 5] were, in that order, 0.52 µM, 8 and 4 µM.
Regarding `COc1ccc(OCC(O)CNNc2ccccc2)cc1.Cl` (stereo not drawn) [Compound 6], in assay [1], the concentration for half-maximal inhibition (IC50) came out at 0.09 µM and the “Selectivity for VAP-1 SSAO over MAO” value is 37. Further, in assay [2], the half-maximal inhibitory concentration (IC50) came to 3.3 µM.
On the same counts, the results for `COC(COc1ccc(C)cc1)CN(C)N.O=C(O)/C=C/C(=O)O` (stereo not drawn) [Compound 7] are 0.44 µM, 14 and 6 µM.
The like results for `CN(N)CC(O)COc1cccc2ccccc12.O=C(O)/C=C\C(=O)O` (stereo not drawn) [Compound 8] were, in that order, 0.65 µM, 15 and 10 µM.
For the compound `COc1ccc(SCC(O)CN(C)N)cc1OC.O=C(O)/C=C/C(=O)O` (stereo not drawn) [Compound 9], the IC50 in assay [1] is 0.21 µM; in assay [2], 41 µM. Besides, in assay [1], the “Selectivity for VAP-1 SSAO over MAO” value turned out to be 195.
The like results for `CN(N)CC(O)COc1ccc2ccccc2c1.O=C(O)/C=C/C(=O)O` (stereo not drawn) [Compound 10] were, in that order, 0.55 µM, 6 µM and 11.
On the same counts, the results for `CN(N)CC(O)CSc1ccccc1.O=C(O)/C=C/C(=O)O` (stereo not drawn) [Compound 11] are 0.27 µM, 11 µM and 41.
On the same counts, the results for `COc1cccc(OCC(O)CN(C)N)c1.O=C(O)/C=C/C(=O)O` (stereo not drawn) [Compound 12] are 0.33 µM, 37 µM and 112.
In the case of `COC(COc1ccc2ccccc2c1)CN(C)N.O=C(O)/C=C/C(=O)O` (stereo not drawn) [Compound 13], in assay [1], the IC50 was determined as 0.64 µM and the “Selectivity for VAP-1 SSAO over MAO” value worked out at 5. Moreover, in assay [2], the IC50 turned out to be 3.3 µM.
The like results for `COC(CSc1ccccc1)CN(C)N.O=C(O)/C=C/C(=O)O` (stereo not drawn) [Compound 14] were, in that order, 0.37 µM, 9 and 3.4 µM.
The like results for `COc1ccc(OCC(O)CN(C)N)cc1.O=C(O)/C=C\C(=O)O` (stereo not drawn) [Compound 16] were, in that order, 0.35 µM, 21 and 7.4 µM.
On the same counts, the results for `CN(N)CC(O)COc1ccc(Cl)cc1.O=C(O)/C=C/C(=O)O` (stereo not drawn) [Compound 17] are 0.43 µM, 14 and 6.1 µM.
For the compound `CN(N)CC(O)CN(C)c1ccccc1.O=C(O)/C=C/C(=O)O` (stereo not drawn) [Compound 19], in assay [1], the half-inhibitory concentration (IC50) worked out at 0.2 µM and the “Selectivity for VAP-1 SSAO over MAO” value amounted to 45. In addition, the IC50 in assay [2] was determined as 8.8 µM.
On the same counts, the results for `COC(CN(C)N)CN(C)c1ccccc1.O=C(O)/C=C/C(=O)O` (stereo not drawn) [Compound 20] are 0.34 µM, 28 and 9.6 µM.
